Source: ChEMBL document CHEMBL5729293, “Inhibitors of KEAP1-Nrf2 protein-protein interaction” (2022)

Assay: Fluorescence Based Assay: The details of the KEAP1 KELCH ThermoFluor® Assay Construct are as follows: Kelch domain of human KEAP 1 (321-624 aa) was used in the assay. The protein was expressed in E. coli with 6His tag that was cleaved prior to receipt for use.ThermoFluor® experiments were carried out using instruments owned by Janssen Research and Discovery, L.L.C. through its acquisition of 3-Dimensional Pharmaceuticals, Inc. 1,8-ANS (Invitrogen) was used as a fluorescent dye. Protein (KEAP Kelch) and compound solutions were dispensed into black 384-well polypropylene PCR microplates (Abgene) and overlayed with silicone oil (1 μL, Fluka, type DC 200) to prevent evaporation.Reference wells contained KEAP Kelch without compounds, and the assay conditions were as follows: 1.1 μM (0.037mg/mL) KEAP Kelch, 80 μM 1,8-ANS, 25 mM PIPES, pH 7.0, 100 mM NaCl, 0.002% Tween-20.

| SMILES | Kd |
| --- | --- |
| Cc1ccc(C(CC(=O)O)c2ccn3c(C(F)(F)F)nnc3c2C)nc1CN1C[C@@H]2CCCCN2c2ncc(F)cc2S1(=O)=O (stereo partly drawn) | < 1 nM |
| Cc1ccc([C@@H](CC(=O)O)c2ccn3c(C(F)(F)F)nnc3c2C)nc1CN1CC2(CC2)Oc2ncc(F)cc2S1(=O)=O | < 1 nM |
| Cc1cnc2c(c1)S(=O)(=O)N(Cc1cc(C(CC(=O)O)c3ccn4c(C(F)F)nnc4c3C)ccc1C)CC1(CC1)O2 (stereo not drawn) | < 1 nM |
| Cc1ccc([C@H](CC(=O)O)c2ccn3c(C(F)(F)F)nnc3c2C)nc1CN1CC2(COC2)Oc2ncccc2S1(=O)=O | < 1 nM |
| Cc1ccc([C@@H](CC(=O)O)c2ccn3c(C(F)(F)F)nnc3c2C)nc1CN1C[C@H]2CCCCN2c2ncc(Cl)cc2S1(=O)=O | < 1 nM |
| Cc1ccc2c(n1)OC1(CC1)CN(Cc1cc([C@H](CC(=O)O)c3ccn4c(C(F)(F)F)nnc4c3C)ccc1C)S2(=O)=O | < 1 nM |
| Cc1ccc(C(CC(=O)O)c2ccn3c(C(F)F)nnc3c2C)cc1CN1CC2(CCOCC2)Oc2ncc(F)cc2S1(=O)=O (stereo not drawn) | < 1 nM |
| Cc1ccc(C(CC(=O)O)c2ccn3c(C(F)(F)F)nnc3c2C)nc1CN1CC2CCCCN2c2ncc(Cl)cc2S1(=O)=O (stereo not drawn) | < 1 nM |
| Cc1ccc([C@H](CC(=O)O)c2ccn3c(C(F)F)nnc3c2C)cc1CN1CC2(CCOCC2)Oc2ncc(F)cc2S1(=O)=O | < 1 nM |
| Cc1cnc2c(c1)S(=O)(=O)N(Cc1cc([C@@H](CC(=O)O)c3ccn4c(C(F)F)nnc4c3C)ccc1C)CC1(CC1)O2 | < 1 nM |
| Cc1ccc([C@H](CC(=O)O)c2ccn3c(C(F)F)nnc3c2C)cc1CN1CC2(CC2)Oc2ncc(F)cc2S1(=O)=O | < 1 nM |
| Cc1ccc(C(CC(=O)O)c2ccn3c(C(F)(F)F)nnc3c2C)nc1CN1CC2(CC2)Oc2ncc(F)cc2S1(=O)=O (stereo not drawn) | < 1 nM |
| Cc1ccc([C@H](CC(=O)O)c2ccn3c(C(F)(F)F)nnc3c2C)nc1CN1C[C@@H]2CCCCN2c2ncc(F)cc2S1(=O)=O | < 1 nM |
| CCc1c([C@@H](CC(=O)O)c2ccc(C)c(CN3C[C@H]4CCCCN4c4ncc(C)cc4S3(=O)=O)c2)ccn2c(C(F)(F)F)nnc12 | < 1 nM |
| Cc1cnc2c(c1)S(=O)(=O)N(Cc1cc(C(CC(=O)O)c3ccn4c(C(F)F)nnc4c3C)ccc1C)C[C@@H]1CCCCN21 (stereo partly drawn) | < 1 nM |
| Cc1ccc(C(CC(=O)O)c2ccn3c(C(F)F)nnc3c2C)cc1CN1CC2(CC2)Oc2ncc(Cl)cc2S1(=O)=O (stereo not drawn) | < 1 nM |
| Cc1ccc([C@@H](CC(=O)O)c2ccn3c(C(F)F)nnc3c2C)cc1CN1CC2(CC2)Oc2ncc(Cl)cc2S1(=O)=O | < 1 nM |
| Cc1ccc([C@@H](CC(=O)O)c2ccn3c(C(F)F)nnc3c2C)cc1CN1CC2(CCOCC2)Oc2ncc(F)cc2S1(=O)=O | < 1 nM |
| Cc1ccc([C@H](CC(=O)O)c2ccn3c(C(F)(F)F)nnc3c2C)nc1CN1C[C@@H]2CCCCN2c2ncc(Cl)cc2S1(=O)=O | < 1 nM |
| Cc1ccc([C@H](CC(=O)O)c2ccn3c(C(F)(F)F)nnc3c2C)nc1CN1CC2(CC2)Oc2ncc(F)cc2S1(=O)=O | < 1 nM |
| Cc1ccc([C@@H](CC(=O)O)c2ccn3c(C(F)(F)F)nnc3c2C)nc1CN1C[C@@H]2CCCCN2c2ncc(Cl)cc2S1(=O)=O | < 1 nM |
| Cc1ccc(C(CC(=O)O)c2ccn3c(C(F)F)nnc3c2C)cc1CN1CC2(CCOCC2)Oc2ccc(F)cc2S1(=O)=O (stereo not drawn) | < 1 nM |
| Cc1ccc([C@@H](CC(=O)O)c2ccn3c(C(F)(F)F)nnc3c2C)nc1CN1C[C@@H]2CCCCN2c2ncc(F)cc2S1(=O)=O | < 1 nM |
| Cc1ccc([C@@H](CC(=O)O)c2ccn3c(C(F)(F)F)nnc3c2C)nc1CN1CC2(COC2)Oc2ncccc2S1(=O)=O | < 1 nM |
| Cc1cnc2c(c1)S(=O)(=O)N(Cc1cc([C@H](CC(=O)O)c3ccn4c(C(F)F)nnc4c3C)ccc1C)CC1(CC1)O2 | < 1 nM |
| Cc1ccc([C@@H](CC(=O)O)c2ccn3c(C(F)F)nnc3c2C)cc1CN1CC2(CC2)Oc2ncc(F)cc2S1(=O)=O | < 1 nM |
| Cc1ccc([C@@H](CC(=O)O)c2ccn3c(C(F)F)nnc3c2C)cc1CN1CC2(CCOCC2)Oc2ccc(F)cc2S1(=O)=O | < 1 nM |
| Cc1ccc(C(CC(=O)O)c2ccn3c(C(F)F)nnc3c2C)cc1CN1CC2(CC2)Oc2ncc(F)cc2S1(=O)=O (stereo not drawn) | < 1 nM |
